One block for each compound: values may come before it. Active and inactive are the calls of the source.
Experiments:
[1] = target: Intestinal-type alkaline phosphatase (Mus musculus, UniProt P24822); experiment: PubChem AID 488785; format: functional
[2] = target: Intestinal-type alkaline phosphatase (Homo sapiens, UniProt P09923); experiment: inhibition of human intestinal alkaline phosphatase – biochemical, dose response (AID 488876); format: functional
[3] = target: T1, Tyrosine-protein phosphatase non-receptor type 22 (Homo sapiens, UniProt Q9Y2R2); format: functional
T1 sequence (Q9Y2R2 whole entry): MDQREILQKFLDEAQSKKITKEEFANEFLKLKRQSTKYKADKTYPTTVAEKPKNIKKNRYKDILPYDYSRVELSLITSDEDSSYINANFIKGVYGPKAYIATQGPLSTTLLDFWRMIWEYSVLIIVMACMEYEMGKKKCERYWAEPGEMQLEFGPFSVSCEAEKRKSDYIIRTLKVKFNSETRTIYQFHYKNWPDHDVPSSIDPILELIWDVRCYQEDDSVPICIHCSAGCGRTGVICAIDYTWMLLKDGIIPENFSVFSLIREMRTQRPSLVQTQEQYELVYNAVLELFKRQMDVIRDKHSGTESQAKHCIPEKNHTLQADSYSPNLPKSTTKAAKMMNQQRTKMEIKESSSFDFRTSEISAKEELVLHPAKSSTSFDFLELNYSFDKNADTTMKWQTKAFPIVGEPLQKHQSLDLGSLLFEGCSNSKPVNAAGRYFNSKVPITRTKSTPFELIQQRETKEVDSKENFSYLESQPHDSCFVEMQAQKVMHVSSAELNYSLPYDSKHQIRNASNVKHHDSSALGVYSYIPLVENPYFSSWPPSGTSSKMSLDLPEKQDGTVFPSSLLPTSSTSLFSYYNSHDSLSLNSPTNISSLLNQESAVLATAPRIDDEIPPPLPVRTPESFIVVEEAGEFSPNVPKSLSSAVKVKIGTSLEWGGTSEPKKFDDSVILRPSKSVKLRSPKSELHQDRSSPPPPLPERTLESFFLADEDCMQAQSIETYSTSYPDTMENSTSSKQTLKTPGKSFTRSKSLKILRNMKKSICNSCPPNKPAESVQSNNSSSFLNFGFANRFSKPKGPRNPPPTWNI

[4] = target: T1, Tyrosine-protein phosphatase non-receptor type 22; format: functional; remark: listed apart in the source
[5] = target: T2, Alkaline phosphatase, tissue-nonspecific isozyme (Homo sapiens, UniProt P05186); experiment: TNAP enzyme inhibition by screening hits, dose response, selectivity assay for mouse IAP inhibitor project, biochemical, human TNAP, uHTS hits (AID 488906); format: functional
T2 sequence (P05186 whole entry): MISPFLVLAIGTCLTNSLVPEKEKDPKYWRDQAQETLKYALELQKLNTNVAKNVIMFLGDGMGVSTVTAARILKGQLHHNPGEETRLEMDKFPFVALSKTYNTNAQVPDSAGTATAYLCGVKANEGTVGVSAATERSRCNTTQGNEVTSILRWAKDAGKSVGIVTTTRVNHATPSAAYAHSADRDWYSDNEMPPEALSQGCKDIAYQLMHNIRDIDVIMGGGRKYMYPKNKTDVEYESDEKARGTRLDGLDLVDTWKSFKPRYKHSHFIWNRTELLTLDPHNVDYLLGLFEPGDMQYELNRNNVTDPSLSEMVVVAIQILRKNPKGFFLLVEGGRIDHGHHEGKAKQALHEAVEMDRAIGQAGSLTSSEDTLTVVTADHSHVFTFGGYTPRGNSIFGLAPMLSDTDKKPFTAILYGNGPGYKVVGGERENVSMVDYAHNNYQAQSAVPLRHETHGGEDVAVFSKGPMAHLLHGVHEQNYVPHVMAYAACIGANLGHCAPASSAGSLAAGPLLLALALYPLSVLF

[6] = target: T3, Tyrosine-protein phosphatase non-receptor type 7 (Homo sapiens, UniProt P35236); format: functional
T3 sequence (P35236 whole entry): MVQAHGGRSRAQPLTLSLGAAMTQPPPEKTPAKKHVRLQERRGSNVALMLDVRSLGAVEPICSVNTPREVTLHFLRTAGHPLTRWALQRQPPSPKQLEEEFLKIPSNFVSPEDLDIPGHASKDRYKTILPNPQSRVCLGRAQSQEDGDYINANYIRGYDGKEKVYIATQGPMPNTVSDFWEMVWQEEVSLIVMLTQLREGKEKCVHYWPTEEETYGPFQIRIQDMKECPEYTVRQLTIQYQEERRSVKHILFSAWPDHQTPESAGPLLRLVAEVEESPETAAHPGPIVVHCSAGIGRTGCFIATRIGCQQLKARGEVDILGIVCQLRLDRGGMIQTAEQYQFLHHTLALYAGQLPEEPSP

[7] = Luminescence Cell-Based Dose Retest to Confirm Inhibitors of Cancer Stem Cells. [Related pubchem assays (depositor defined):AID2717, AID2721]; format: functional; settings: Homo sapiens
[8] = cytotoxicity in HMLE control line with eGFP shRNA, dose response, counter-screen for HMLE_sh_ECad selective toxicity project, cell-based, HMLE_sh_eGFP, luminescence (AID 463074); format: functional, Homo sapiens;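 further: HMLE human mammary epithelial cells expressing control shRNA against eGFP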
[9] = target: Cytochrome P450 2D6 (Homo sapiens, UniProt P10635);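 further: CYP2D6 member of a cytochrome P450 panel assay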
Sequence of Cytochrome P450 2D6 (P10635 whole entry): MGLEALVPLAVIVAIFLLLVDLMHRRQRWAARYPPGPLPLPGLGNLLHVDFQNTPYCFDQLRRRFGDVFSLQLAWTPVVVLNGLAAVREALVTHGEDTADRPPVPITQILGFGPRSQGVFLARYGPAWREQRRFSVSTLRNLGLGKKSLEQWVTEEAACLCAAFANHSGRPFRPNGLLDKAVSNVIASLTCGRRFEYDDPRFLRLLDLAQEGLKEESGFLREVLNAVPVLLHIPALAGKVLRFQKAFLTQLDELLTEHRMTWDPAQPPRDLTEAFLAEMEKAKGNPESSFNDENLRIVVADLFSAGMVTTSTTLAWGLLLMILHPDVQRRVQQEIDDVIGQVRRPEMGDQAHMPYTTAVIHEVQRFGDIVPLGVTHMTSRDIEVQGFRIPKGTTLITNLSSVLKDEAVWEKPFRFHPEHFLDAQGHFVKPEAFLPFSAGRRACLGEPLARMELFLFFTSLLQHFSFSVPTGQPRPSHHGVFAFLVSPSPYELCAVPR

[10] = growth suppression of beta-catenin-knockout colon cells, dose response, cell-based, HCT116, human colon tumor (AID 1045); format: functional;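 further: HCT116 colon tumor cells with beta catenin knocked out; cells exposed to compound for 60 hours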
[11] = target: T4, SUMO-activating enzyme (Homo sapiens, UniProt Q9UBT2); experiment: inhibitors of in vitro SUMOylation cascade, primary screen, biochemical, HTRF, uHTS (AID 2006); format: protein-complex assay
T4 sequence (Q9UBE0 whole entry): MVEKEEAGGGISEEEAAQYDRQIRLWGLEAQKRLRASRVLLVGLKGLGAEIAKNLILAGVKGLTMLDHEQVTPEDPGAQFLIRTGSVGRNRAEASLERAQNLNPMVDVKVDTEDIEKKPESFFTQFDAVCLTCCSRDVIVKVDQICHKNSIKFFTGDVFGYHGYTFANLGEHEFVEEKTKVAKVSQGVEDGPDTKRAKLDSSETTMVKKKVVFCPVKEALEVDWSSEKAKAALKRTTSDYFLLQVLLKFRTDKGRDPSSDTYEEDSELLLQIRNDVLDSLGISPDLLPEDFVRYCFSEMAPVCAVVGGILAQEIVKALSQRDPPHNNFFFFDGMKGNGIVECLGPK
T4 sequence (Q9UBT2 whole entry): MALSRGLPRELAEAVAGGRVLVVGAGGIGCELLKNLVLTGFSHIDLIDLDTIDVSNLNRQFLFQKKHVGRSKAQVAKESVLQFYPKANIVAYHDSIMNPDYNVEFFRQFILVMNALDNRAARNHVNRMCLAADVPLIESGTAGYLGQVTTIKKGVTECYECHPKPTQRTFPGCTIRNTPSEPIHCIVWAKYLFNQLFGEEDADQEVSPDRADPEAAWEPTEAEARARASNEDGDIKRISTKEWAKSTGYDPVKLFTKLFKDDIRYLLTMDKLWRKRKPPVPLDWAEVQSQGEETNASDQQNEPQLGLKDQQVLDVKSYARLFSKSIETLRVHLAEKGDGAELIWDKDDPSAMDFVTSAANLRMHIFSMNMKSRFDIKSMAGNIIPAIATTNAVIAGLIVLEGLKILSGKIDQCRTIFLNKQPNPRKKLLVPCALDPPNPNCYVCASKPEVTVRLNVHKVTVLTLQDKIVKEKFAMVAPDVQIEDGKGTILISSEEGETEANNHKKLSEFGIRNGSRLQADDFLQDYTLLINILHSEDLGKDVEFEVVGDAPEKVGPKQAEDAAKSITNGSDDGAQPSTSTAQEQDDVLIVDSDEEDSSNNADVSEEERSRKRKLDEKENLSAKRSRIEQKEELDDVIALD

[12] = system: INS1; experiment: beta cell apoptosis inhibitors, cytokine rescue, dose response, luminescence, retest (AID 449756); format: functional, cell-based; settings: Rattus norvegicus;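 further: cell death triggered by IL-1 beta plus TNF-alpha plus IFN-gamma mixture; protective hits raise ATP signal compared with cytokine alone wells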
[13] = growth suppression of PTEN-null colon cells, dose response, cell-based, HCT116 PTEN knockout (AID 1047); format: functional;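 further: HCT116 colon tumor cells with PTEN knocked out; cells exposed to compound for 60 hours before readout; potency for loss of cell viability measured by luminescence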
[14] = target: Induced myeloid leukemia cell differentiation protein Mcl-1 (Homo sapiens, UniProt Q07820); format: functional
Sequence of Induced myeloid leukemia cell differentiation protein Mcl-1 (Q07820 whole entry): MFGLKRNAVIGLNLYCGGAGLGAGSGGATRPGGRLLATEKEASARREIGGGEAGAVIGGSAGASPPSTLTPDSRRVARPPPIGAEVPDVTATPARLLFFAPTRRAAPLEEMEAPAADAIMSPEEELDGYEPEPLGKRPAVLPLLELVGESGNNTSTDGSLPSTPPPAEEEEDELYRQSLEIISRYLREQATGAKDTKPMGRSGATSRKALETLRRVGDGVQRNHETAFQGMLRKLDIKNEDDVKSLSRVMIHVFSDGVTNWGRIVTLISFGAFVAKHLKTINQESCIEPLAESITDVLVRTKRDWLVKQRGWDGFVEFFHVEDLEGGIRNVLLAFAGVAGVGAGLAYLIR

[15] = target: SUMO E1/E2 (Homo sapiens, UniProt P63279+Q9UBE0+Q9UBT2); experiment: SAR analysis of SUMOylation using HTRF in an in-Vitro dose response assay. [Related pubchem assays (depositor defined):AID2006, AID2011, AID2018, AID2069, AID2658]; format: functional
Sequence of SUMO E1/E2 (Q9UBE0 whole entry): as the sequence (Q9UBE0 whole entry) above
Sequence of SUMO E1/E2 (Q9UBT2 whole entry): as the sequence (Q9UBT2 whole entry) above
Sequence of SUMO E1/E2 (P63279 whole entry): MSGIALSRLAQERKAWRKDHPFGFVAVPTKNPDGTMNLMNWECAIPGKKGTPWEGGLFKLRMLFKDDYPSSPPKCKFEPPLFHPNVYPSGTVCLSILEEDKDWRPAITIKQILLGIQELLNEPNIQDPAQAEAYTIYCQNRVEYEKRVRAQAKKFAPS

[16] = target: T4, SUMO-activating enzyme; experiment: SUMOylation inhibitor hit validation, confirmation, SUMOylation inhibitor project, biochemical, AlphaScreen (AID 2018); format: functional
[17] = Counterscreen for AddAB inhibitors: absorbance-based bacterial cell-based high throughput dose response assay for inhibitors of bacterial viability. [Related pubchem assays (depositor defined):AID435030, AID449728, AID449731, AID488942, AID488955, AID488956]; format: functional
[18] = target: Exodeoxyribonuclease V (Escherichia coli (strain K12), UniProt P04993+P07648+P08394); experiment: E. coli RecBCD inhibitors, dose response, counter-screen for AddAB inhibitor project, absorbance, V66 E. coli, mutant T4 phage (AID 492957); format: functional, cell-based, Escherichia coli str. K-12 substr. MG1655

Sequence of Intestinal-type alkaline phosphatase (Mus musculus, UniProt P24822) (P24822 whole entry): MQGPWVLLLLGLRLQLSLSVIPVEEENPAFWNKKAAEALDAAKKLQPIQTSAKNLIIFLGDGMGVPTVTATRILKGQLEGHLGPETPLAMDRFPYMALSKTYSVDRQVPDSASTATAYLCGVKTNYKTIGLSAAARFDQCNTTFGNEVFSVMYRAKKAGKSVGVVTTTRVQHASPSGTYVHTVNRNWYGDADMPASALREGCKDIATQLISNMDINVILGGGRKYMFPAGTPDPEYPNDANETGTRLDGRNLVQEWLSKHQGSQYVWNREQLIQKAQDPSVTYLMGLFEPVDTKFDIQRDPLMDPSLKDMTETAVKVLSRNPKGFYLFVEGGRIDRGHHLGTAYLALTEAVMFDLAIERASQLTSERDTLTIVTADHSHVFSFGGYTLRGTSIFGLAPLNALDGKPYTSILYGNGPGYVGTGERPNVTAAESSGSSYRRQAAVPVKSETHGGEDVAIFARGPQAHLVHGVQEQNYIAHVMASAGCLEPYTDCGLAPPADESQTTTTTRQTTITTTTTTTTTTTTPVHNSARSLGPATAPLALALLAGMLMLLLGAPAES
Sequence of Intestinal-type alkaline phosphatase (Homo sapiens, UniProt P09923) (P09923 whole entry): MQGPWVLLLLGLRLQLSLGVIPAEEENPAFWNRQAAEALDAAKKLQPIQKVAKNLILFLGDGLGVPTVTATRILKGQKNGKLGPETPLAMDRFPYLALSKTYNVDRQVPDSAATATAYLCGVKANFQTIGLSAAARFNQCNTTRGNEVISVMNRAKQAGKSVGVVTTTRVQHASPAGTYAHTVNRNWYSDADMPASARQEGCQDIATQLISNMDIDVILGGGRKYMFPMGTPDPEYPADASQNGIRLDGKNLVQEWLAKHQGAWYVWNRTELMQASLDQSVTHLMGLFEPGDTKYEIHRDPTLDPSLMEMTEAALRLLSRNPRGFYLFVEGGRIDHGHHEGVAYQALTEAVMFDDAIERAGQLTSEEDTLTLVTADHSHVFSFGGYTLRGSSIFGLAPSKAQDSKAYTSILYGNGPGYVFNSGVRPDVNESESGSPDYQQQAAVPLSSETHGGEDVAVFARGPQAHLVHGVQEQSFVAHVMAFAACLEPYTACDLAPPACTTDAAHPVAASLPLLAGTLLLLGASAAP

- IC50 [1]: 6.56 µM (active)
- IC50 [2]: 29.2 µM (active)
- IC50 [3]: > 79.4 µM (inactive)
- IC50 [4]: > 79.4 µM (inactive)
- IC50 [5]: 87.6 µM (active)
- IC50 [6]: > 79.4 µM (inactive)
Structure (SMILES): S=C(NCc1ccc(Cl)cc1Cl)NC1CCCCC1

Structure (SMILES): CC1CCN(C2=NN3C(=N)/C(=C\c4ccc(OC(=O)c5ccco5)cc4)C(=O)N=C3S2)CC1
- AC50 [7]: 14.6 µM (active)
- AC50 [8]: 25.4 µM (active)

Structure (SMILES): Cl.N=C(N)N/N=C\c1cnn(C(=N)N)c1
- AC50 [9]: inconclusive

Structure (SMILES): Cc1ccc(NC(=O)Cn2c(O)c(N=NC(=O)c3cc4ccccc4cc3O)c3ccccc32)cc1
- EC50 [10]: 5.17 µM (active)
- IC50 [11]: 10.7 µM (active)
- AC50 [7]: 4.23 µM (active)
- AC50 [12]: 7.77 µM (active)
- EC50 [13]: 5.12 µM (active)
- IC50 [14]: 2.57 µM (active)
- IC50 [15]: 51.5 µM (active)
- IC50 [16]: 17 µM (active)

Structure (SMILES): O=C(COC(=O)COc1ccccc1)Nc1ncc([N+](=O)[O-])s1
- IC50 [1]: 0.674 µM (active)
- IC50 [2]: > 100 µM (inactive)
- IC50 [17]: > 39.5 µM (inactive)
- IC50 [5]: 4.72 µM (active)
- IC50 [18]: > 119 µM (inactive)

Reference: ChEMBL document CHEMBL1201862, “PubChem BioAssay data set” (2004)
